Results from US9079870B2, “Thiol mediated/activated prodrugs of sulfur dioxide (SO2) having anti-bacterial activity” (priority 2012, dated 2015).
Converted amounts (≈) assume the structure as drawn. Where two headings read alike, the source gives them in different places.

Tests used:
[1] = Pararosaniline-based colorimetric assay for sulfur dioxide; assay type: physicochemical; conditions: detected with pararosaniline-based colorimetric assay; 10 equiv cysteine, pH 7.4
[2] = test system: Mycobacterium tuberculosis H37Rv strain; assay: Antimycobacterial activity assay (MIC, 7H11 agar); assay type: cell-based; conditions: for inhibition of growth of Mtb at 100 μg mL-1: tested at 100 μg mL-1
S. aureus ATCC 29213 = assay: Antibacterial activity (MIC) against S. aureus; assay type: cell-based
Source text: (§1) The antibacterial activity of thiol mediated/activated prodrugs of SO2 i.e. 2,4-dinitrophenylsulfonamide related compounds against the gram positive pathogenic bacteria selected from the group S. aureus, E. feacalis is given herein below Table 2a.

E. feacalis ATCC 29212 = assay: Antibacterial activity (MIC) against E. feacalis; assay type: cell-based
Source text: as §1

[3] = Cysteine-activated sulfur dioxide release, ion chromatography analysis of sulfite; conditions: for SO2 yield, 5 min: 5 min after treatment of compound (100 1M) with 10 equiv of cysteine in pH 7.4 phosphate buffer; for % SO2 (30 min): 30 min after commencement of the reaction with thiol, per mole of compound
[4] = Mycobacterium tuberculosis, Table 3, Mtb H37Rv, read-out: MIC
[5] = Mycobacterium tuberculosis, H37RV, Table 3, Mtb H37Rv
[6] = Mycobacterium tuberculosis, H37RV, Table 3, inhibit 99% of bacterial growth, Mtb H37Rv
[7] = Staphylococcus aureus, ATCC29213; read-out: MIC (μg/mL) S. aureus ATCC 29213
[8] = Enterococcus faecalis, ATCC29212; read-out: MIC (μg/mL) E. feacalis ATCC 29212
[9] = 30 min after treatment of compound (100 1M) with 10 equiv of cysteine in pH 7.4 phosphate buffer
[10] = Mycobacterium tuberculosis, H37RV, Table 2b, Mtb H37Rv
[11] = Mycobacterium tuberculosis, H37RV, Table 2b, inhibit 99% of bacterial growth, Mtb H37Rv
[12] = Table 2b, Mtb H37Rv, read-out: MIC
[13] = Table 3, 30 min after treatment of compound (100 μM) with 10 equiv of cysteine in pH 7.4 phosphate buffer
[14] = Mycobacterium tuberculosis, H37RV, 672 h, Table 3, inhibit 99% of bacterial growth, Mtb H37Rv, read-out: MIC
[15] = Staphylococcus aureus, ATCC29213, read-out: MIC (μg/mL) S. aureus ATCC 29213
[16] = Enterococcus faecalis, ATCC29212, read-out: MIC (μg/mL) E. feacalis ATCC 29212
[17] = Mycobacterium tuberculosis, Table 2b, Mtb H37Rv, read-out: MIC
[18] = Mycobacterium tuberculosis, Table 2b, inhibit 99% of bacterial growth, Mtb H37Rv, read-out: MIC

NCc1ccccc1 [BnNH2, Benzylamine, reference compound]
SO2 source [1]: no
MIC [2, 4]: > 250 µM
MIC ([2]; Mycobacterium tuberculosis, Table 3, inhibit 99% of bacterial growth, Mtb H37Rv, read-out: MIC): > 100 µg/mL
inhibition of growth of Mtb at 100 μg mL-1 [2]: did not show a significant inhibition of growth of Mtb

CNCc1ccccc1 [BnNHMe, N-methylbenzylamine, reference compound]
SO2 source [1]: no
MIC [2, 5]: > 250 µM
MIC [2, 6]: > 100 µg/mL
inhibition of growth of Mtb at 100 μg mL-1 [2]: a similar observation

COc1ccc(CNS(=O)(=O)c2ccc([N+](=O)[O-])cc2[N+](=O)[O-])cc1 [Compound 2, N-(4-methoxybenzyl)2,4-dinitrophenylsulfonamide]
MIC (S. aureus ATCC 29213; [7]): > 16 µg/mL
MIC (E. feacalis ATCC 29212; [8]): > 16 µg/mL
SO2 yield, 5 min [3]: 74 µM
SO2 yield, 30 min [3, 9]: 84 µM
MIC [2, 10]: 0.68 µM
MIC [2, 11]: 0.25 µg/mL

O=[N+]([O-])c1ccc(S(=O)(=O)NCc2ccc(Cl)cc2)c([N+](=O)[O-])c1 [Compound 3, N-(4-chlorobenzyl)2,4-dinitrophenylsulfonamide]
SO2 yield, 5 min [3]: 77 µM
SO2 yield, 30 min [3, 9]: 96 µM
MIC [2, 10]: 1.07 µM
MIC [2, 11]: 0.4 µg/mL

O=[N+]([O-])c1ccc(S(=O)(=O)NCc2ccc(C(F)(F)F)cc2)c([N+](=O)[O-])c1 [Compound 4, N-(4-trifluoromethylbenzyl) 2,4-dinitrophenylsulfonamide]
SO2 yield, 5 min [3]: 79 µM
SO2 yield, 30 min [3, 9]: 75 µM
MIC [2]: 0.4 µg/mL
MIC [2, 12]: 0.98 µM

O=[N+]([O-])c1ccc(S(=O)(=O)NCc2ccccc2C(F)(F)F)c([N+](=O)[O-])c1 [Compound 5, N-(2-trifluoromethylbenzyl) 2,4-dinitrophenylsulfonamide]
SO2 yield, 5 min [3]: 81 µM
SO2 yield, 30 min [3, 9]: 84 µM
MIC [2]: 1.56 µg/mL
MIC [2, 12]: 3.84 µM

COc1ccccc1NS(=O)(=O)c1ccc([N+](=O)[O-])cc1[N+](=O)[O-] [Compound 8, N-(2-methoxyphenyl) 2,4-dinitrophenylsulfonamide]
MIC (S. aureus ATCC 29213; [7]): 8 µg/mL (≈ 22.6 µM)
MIC (E. feacalis ATCC 29212; [8]): 16 µg/mL (≈ 45.3 µM)
SO2 yield, 5 min [3]: 57 µM
SO2 yield, 30 min [3, 9]: 86 µM
MIC [2, 10]: 8.85 µM
MIC [2, 11]: 3.13 µg/mL

O=[N+]([O-])c1ccc(S(=O)(=O)Nc2ccc(F)cc2)c([N+](=O)[O-])c1 [Compound 10, N-(4-fluorophenyl) 2,4-dinitrophenylsulfonamide]
MIC (S. aureus ATCC 29213; [7]): 16 µg/mL (≈ 46.9 µM)
MIC (E. feacalis ATCC 29212; [8]): > 16 µg/mL
SO2 yield, 5 min [3]: 18 µM
SO2 yield, 30 min [3, 9]: 55 µM
MIC [2, 10]: 18.3 µM
MIC [2, 11]: 6.25 µg/mL

N#Cc1ccc(NS(=O)(=O)c2ccc([N+](=O)[O-])cc2[N+](=O)[O-])cc1 [Compound 11, N-(4-cyanophenyl) 2,4-dinitrophenylsulfonamide]
MIC (S. aureus ATCC 29213; [7]): > 16 µg/mL
MIC (E. feacalis ATCC 29212; [8]): > 16 µg/mL
SO2 yield, 5 min [3]: 6 µM
SO2 yield in 30 min (%) ([3]; 30 min after commencement of the reaction with cysteine (10 equiv), pH 7.4): 5%
SO2 yield, 30 min [3, 9]: 5 µM
MIC [2, 10]: > 100 µM
MIC [2, 11]: > 50 µg/mL

C[C@H](NS(=O)(=O)c1ccc([N+](=O)[O-])cc1[N+](=O)[O-])c1ccccc1 [Compound 12, (S) N-(1-phenylethyl)-2,4-dinitrobenzenesulfonamide]
SO2 yield, 5 min [3]: 80 µM
SO2 yield, 30 min [3, 9]: 97 µM
MIC [2, 10]: 4.44 µM
MIC [2, 11]: 1.56 µg/mL

C[C@@H](NS(=O)(=O)c1ccc([N+](=O)[O-])cc1[N+](=O)[O-])c1ccccc1 [Compound 13, (R) N-(1-phenylethyl)-2,4-dinitrobenzenesulfonamide]
SO2 yield, 5 min [3]: 78 µM
SO2 yield, 30 min [3, 9]: 94 µM
MIC [2, 10]: 4.44 µM
MIC [2, 11]: 1.56 µg/mL

O=[N+]([O-])c1ccc(S(=O)(=O)NCCc2ccccc2)c([N+](=O)[O-])c1 [Compound 14, N-(2-phenylethyl) 2,4-dinitrophenylsulfonamide]
SO2 yield, 5 min [3]: 76 µM
SO2 yield, 30 min [3, 9]: 100 µM
MIC [2]: 0.4 µg/mL
MIC [2, 12]: 1.13 µM

O=[N+]([O-])c1ccc(S(=O)(=O)N(Cc2ccccc2)c2ccccc2)c([N+](=O)[O-])c1 [Compound 17, (N-benzyl, N-phenyl) 2,4-dinitrophenylsulfonamide]
SO2 yield, 5 min [3]: 44 µM
SO2 yield, 30 min [3, 9]: 94 µM
MIC [2, 12]: 4.44 µM
MIC ([2]; Table 2b, inhibit 99% of bacterial growth, Mtb H37Rv): 1.56 µg/mL

CN(c1ccccc1)S(=O)(=O)c1ccc([N+](=O)[O-])cc1[N+](=O)[O-] [Compound 18, (N-methyl, N-phenyl) 2,4-dinitrophenylsulfonamide]
SO2 yield, 5 min [3]: 89 µM
SO2 yield, 30 min [3, 9]: 94 µM
MIC [2]: 0.78 µg/mL
MIC [2, 12]: 2.31 µM

CN(CCc1ccccc1)S(=O)(=O)c1ccc([N+](=O)[O-])cc1[N+](=O)[O-] [Compound 19, N-methyl, N-(2-phenylethyl) 2,4-dinitrophenylsulfonamide]
SO2 yield, 5 min [3]: 79 µM
SO2 yield, 30 min [3, 9]: 84 µM
MIC [2]: 0.78 µg/mL
MIC [2, 12]: 2.13 µM

O=[N+]([O-])c1ccc(S(=O)(=O)N(CCc2ccccc2)Cc2ccccc2)c([N+](=O)[O-])c1 [Compound 20, N-benzyl, N-(2-phenylethyl) 2,4-dinitrophenylsulfonamide]
SO2 yield, 5 min [3]: 37 µM
SO2 yield, 30 min [3, 9]: 75 µM
MIC [2]: 3.13 µg/mL
MIC [2, 12]: 7.09 µM

COC(=O)C(C)NS(=O)(=O)c1ccc([N+](=O)[O-])cc1[N+](=O)[O-] (stereo not shown) [Compound 21, Methyl 2-{[(2,4-dinitrophenyl)sulfonyl]amino}propanoate]
SO2 source [1]: yes
SO2 yield, 30 min [3, 13]: 93 µM
MIC [2, 14]: ≤ 25 µg/mL
MIC [2, 5]: 18.7 µM
MIC [2, 6]: 6.25 µg/mL

COC(=O)C1CCCN1S(=O)(=O)c1ccc([N+](=O)[O-])cc1[N+](=O)[O-] (stereo not shown) [Compound 22, Methyl 1[(2,4-dinitrophenyl)sulfonyl]pyrrolidine-2-carboxylate]
SO2 source [1]: yes
SO2 yield, 30 min [3, 13]: 83 µM
MIC [2, 14]: ≤ 25 µg/mL
MIC [2, 5]: 35 µM
MIC [2, 6]: 12.5 µg/mL

CN1CCN(S(=O)(=O)c2ccc([N+](=O)[O-])cc2[N+](=O)[O-])CC1 [Compound 25, 1-[(2,4-dinitrophenyl)sulfonyl]-4-methylpiperazine]
SO2 source [1]: yes
SO2 yield, 30 min [3, 13]: 88 µM
MIC [2, 14]: ≤ 25 µg/mL
MIC [2, 5]: 38 µM
MIC [2, 6]: 12.5 µg/mL

C=CCN(CC=C)S(=O)(=O)c1ccc([N+](=O)[O-])cc1[N+](=O)[O-] [Compound 32, N,N-diallyl-2,4-dinitrobenzenesulfonamide]
MIC (S. aureus ATCC 29213; [15]): 8 µg/mL (≈ 24.4 µM)
MIC (E. feacalis ATCC 29212; [16]): > 16 µg/mL

C#CCN(Cc1ccccc1)S(=O)(=O)c1ccc([N+](=O)[O-])cc1[N+](=O)[O-] [Compound 33, N-benzyl-2,4-dinitro-N-prop-2-yn-1-ylbenzenesulfonamide]
MIC (S. aureus ATCC 29213; [15]): 4 µg/mL (≈ 10.7 µM)
MIC (E. feacalis ATCC 29212; [16]): 8 µg/mL (≈ 21.3 µM)

COc1ccccc1N(CCCN(Cc1ccccc1)S(=O)(=O)c1ccc([N+](=O)[O-])cc1[N+](=O)[O-])S(=O)(=O)c1ccc([N+](=O)[O-])cc1[N+](=O)[O-] [Compound 35, N-benzyl-N-(3-(N-(2-methoxyphenyl)-2,4-dinitrophenylsulfonamido)propyl)-2,4-dinitrobenzenesulfonamide]
% SO2 (30 min) [3]: 161%

O=[N+]([O-])c1ccc(S(=O)(=O)N(CCCN(Cc2ccccc2)S(=O)(=O)c2ccccc2[N+](=O)[O-])Cc2ccccc2)c([N+](=O)[O-])c1 [Compound 40, N-benzyl-N-(3-(N-benzyl-2-nitrophenylsulfonamido)propyl)-2,4-dinitrobenzenesulfon-amide]
% SO2 (30 min) [3]: 88%

O=[N+]([O-])c1cccc(S(=O)(=O)N(CCCN(Cc2ccccc2)S(=O)(=O)c2ccc([N+](=O)[O-])cc2[N+](=O)[O-])Cc2ccccc2)c1 [Compound 41, N-benzyl-N-(3-(N-benzyl-3-nitrophenylsulfonamido)propyl)-2,4-dinitrobenzenesulfon-amide]
% SO2 (30 min) [3]: 99%

O=[N+]([O-])c1ccc(S(=O)(=O)N(CCCN(Cc2ccccc2)S(=O)(=O)c2ccc([N+](=O)[O-])cc2[N+](=O)[O-])Cc2ccccc2)cc1 [Compound 42, N-benzyl-N-(3-(N-benzyl-4-nitrophenylsulfonamido)propyl)-2,4-dinitrobenzenesulfon-amide]
% SO2 (30 min) [3]: 98%

CC[C@@H](CO)NCCN[C@@H](CC)CO [Ethambutol, reference compound]
MIC [2, 17]: 7.63 µM
MIC [2, 18]: 1.56 µg/mL

NNC(=O)c1ccncc1 [Isoniazide, reference compound]
SO2 source [1]: no
MIC [2, 18]: 0.05 µg/mL
MIC [2, 4]: 0.37 µM
MIC [2, 12]: 0.37 µM
MIC ([2]; Table 3, inhibit 99% of bacterial growth, Mtb H37Rv): 0.05 µg/mL

NC(=O)c1cnccn1 [Pyrizinamide, reference compound]
MIC [2, 17]: 50.8 µM
MIC [2, 18]: 6.25 µg/mL

O=S([O-])[O-].[Na+].[Na+] [sodium sulfite, reference compound]
inhibition of growth of Mtb at 100 μg mL-1 [2]: inactive against Mtb
